Laboratory results reported in patent publication US20180265463A1, “Vitamin D3 Derivatives and Pharmaceutical Use Thereof” (Kyoto University, priority 2014, published 2018).
Values joined by “and” are separate entries in the source; they are usually repeats but may differ in a detail not shown here. Equal entries are not always repeated. “Also recorded” adds a separate entry of the source.

What was measured:
Type in all cases: cell-based, Chinese hamster
SREBP = assay: SRE-driven luciferase reporter assay of SREBP activation; details: luciferase reporter in CHO-K1 cells, lipid-depleted medium, 20-24 h, normalized to β-galactosidase; averages of three independent experiments; read-out: IC50 (μM), inhibitory effect on the activation of SREBP
Experimental: The transfected cells were treated with DMSO alone, sterols (10 μg/mL cholesterol and 1.0 μg/mL 25-HC), or varied concentrations of 25(OH)D in a medium containing lipid-free serum. Luciferase activity was measured after 20 h incubation, and the data were normalized to β-galactosidase activity. Values are the mean±SD of three independent experiments.
The molecules in a chemical library which consists of 280 endogenous lipid related molecules were screened for their ability to inhibit the expression of a luciferase reporter gene. In this gene, three repeats of sterol regulatory elements (SREs) control expression of luciferase. Lipid depletion activates SREBPs, which bind to the SRE domain and work as transcription factors to express luciferase. The SREBP-responsive reporter construct was co-transfected into Chinese hamster ovary K1 (CHO-K1) cells, along with a control β-galactosidase (β-gal) reporter gene. A constitutively active actin promoter in the reporter gene drives the expression of β-gal. The levels of luciferase expression from the SREBP-responsive reporter gene were normalized to the levels of β-gal expression.
CHO-K1 cells were maintained in a medium A (1:1 mixture of Ham's F-12 medium and Dulbecco's modified Eagle medium, supplemented with 100 units/mL penicillin, 100 μg/mL streptomycin sulfate, and 5% (v/v) fetal bovine serum) at 37° C. under humidified 5% CO2.
On day 0, CHO-K1 cells were added to 96-well plates at 1.0×10^4 cells per well in medium A. On day 1, the cells were co-transfected with an SRE-1-driven luciferase reporter construct (pSRE-Luc) and pAc-β-gal at a 20/1 ratio, using FuGENE(Registered trademark) HD transfection reagent (Promega), according to the manufacturer's protocol. After 8-12 h of incubation, the cells were washed with PBS buffer, then incubated in medium B containing the specific test compounds. […] After 20-24 h of incubation, the cells in each well were lysed by freeze-thaw with Reporter Lysis Buffer (Promega), and aliquots were used to measure luciferase and β-galactosidase activities. Luciferase activity was measured using the Steady-Glo(Registered trademark) Luciferase Assay System (Promega), and β-galactosidase activity was measured using the β-galactosidase Enzyme Assay System (Promega). Luciferase activity was normalized to β-galactosidase activity.

[1] = system: SREBP-2 fragment fused to PLAP (PLAP-BP2513-1141); assay: PLAP-BP assay (secreted alkaline phosphatase reporter of SREBP translocation and processing); details: VD derivatives 10 μM, 20 h, CHO-K1 co-transfected with PLAP-BP2 and SCAP; average of two experiments
SCAP [2] = target: T1, SCAP (Cricetulus griseus, UniProt P97260); assay: Western-blot analysis of SCAP levels and ubiquitination in CHO-K1 cells; details: 5 μM, CHO-K1 cells, different times (FIG. 4)
T1 construct: endogenous in cells; host or cells: CHO-K1
T1 sequence (P97260 1-1276): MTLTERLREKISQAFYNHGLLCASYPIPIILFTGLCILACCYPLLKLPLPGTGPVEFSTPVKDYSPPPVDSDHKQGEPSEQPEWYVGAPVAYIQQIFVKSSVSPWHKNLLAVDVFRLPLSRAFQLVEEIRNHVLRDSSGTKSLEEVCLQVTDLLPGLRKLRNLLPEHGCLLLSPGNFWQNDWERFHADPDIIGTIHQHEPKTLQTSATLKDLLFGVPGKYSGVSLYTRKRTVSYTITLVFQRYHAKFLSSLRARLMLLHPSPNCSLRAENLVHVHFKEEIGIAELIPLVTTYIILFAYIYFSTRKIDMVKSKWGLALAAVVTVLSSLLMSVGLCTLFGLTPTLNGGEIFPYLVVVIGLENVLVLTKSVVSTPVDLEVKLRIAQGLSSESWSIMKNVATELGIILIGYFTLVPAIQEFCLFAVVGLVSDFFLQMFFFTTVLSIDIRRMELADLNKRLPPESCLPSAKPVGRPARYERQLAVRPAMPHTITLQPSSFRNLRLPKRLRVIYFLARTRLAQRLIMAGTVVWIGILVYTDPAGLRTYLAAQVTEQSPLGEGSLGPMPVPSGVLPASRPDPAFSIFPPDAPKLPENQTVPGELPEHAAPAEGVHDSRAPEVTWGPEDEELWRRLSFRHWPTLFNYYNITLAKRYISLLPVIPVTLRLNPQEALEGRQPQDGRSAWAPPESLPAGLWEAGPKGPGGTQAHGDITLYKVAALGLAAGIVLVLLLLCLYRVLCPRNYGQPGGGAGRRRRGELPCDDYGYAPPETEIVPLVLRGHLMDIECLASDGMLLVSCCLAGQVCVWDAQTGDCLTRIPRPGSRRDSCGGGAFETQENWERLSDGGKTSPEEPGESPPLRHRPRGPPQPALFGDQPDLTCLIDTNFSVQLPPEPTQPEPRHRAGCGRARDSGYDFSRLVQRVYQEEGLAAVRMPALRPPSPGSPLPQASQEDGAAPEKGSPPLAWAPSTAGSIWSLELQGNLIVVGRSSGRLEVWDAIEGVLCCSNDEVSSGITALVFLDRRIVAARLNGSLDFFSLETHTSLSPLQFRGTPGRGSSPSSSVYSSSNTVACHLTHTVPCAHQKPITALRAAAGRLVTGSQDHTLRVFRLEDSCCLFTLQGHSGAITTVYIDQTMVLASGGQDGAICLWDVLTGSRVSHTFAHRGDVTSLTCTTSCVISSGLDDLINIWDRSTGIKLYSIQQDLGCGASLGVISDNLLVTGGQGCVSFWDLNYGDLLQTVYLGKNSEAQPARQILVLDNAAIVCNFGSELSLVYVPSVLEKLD
Experimental: (§1) After incubation for the indicated time, the levels of SCAP and precursor and mature forms of SREBP-2 were analyzed by Western-blot. Western-blots of actin are shown in lower panel as a loading control.
(§2) CHO-K1 cells were treated with DMSO alone or 25(OH)D (5 μM) in the presence or absence of MG-132 (10 μM) for 5 h. The levels of Myc-SCAP were analyzed by Western-blot. Western-blots of actin are shown in lower panel as a loading control.
(§3) CHO-K1 cells were treated with DMSO alone (−) or 25(OH)D (5 μM, +). After 2 h incubation, each dish received MG-132 (10 μM). Following incubation for 2 h, cells were harvested and subjected to immunoprecipitation with monoclonal anti-c-Myc-conjugated agarose beads. The ubiquitination of SCAP was analyzed by Western-blot.
(§4) On day 0, CHO-K1 cells were added to 6-well plates at 3.0×10^5 cells per well in medium A. On day 1, the cells were washed with PBS, and then incubated in medium B in the absence or presence of specific test compounds (5 μM). After 16 h of incubation, the cells were washed three times with cold PBS, and lysed with a buffer A (50 mM Tris-HCl (pH 7.5), 150 mM NaCl, 1% (v/v) Nonidet P40, 0.5% (w/v) sodium deoxycholate, 8 M urea, and protease inhibitor cocktail (Nacalai)). The cell lysate were passed 16 times through a 25 G needle and centrifuged at 7,000 g at 4° C. for 10 min. The supernatants were transferred to new tubes, and the pellets were extracted with a buffer A. The resulting buffer was centrifuged at 7,000 g at 4° C. for 10 min, and the supernatants were combined to the previous ones. The resulting lysate was mixed with 0.20 volume of 6×SDS sample buffer (Nacalai) and incubated at room temperature for 30 min. The samples were separated on a 10% SDS-PAGE gel and blotted, using mouse monoclonal antibodies against SREBP-2 (IgG-7D4), SCAP (IgG-9D5), c-Myc (IgG1-MC045), and actin (AC-40). The specific bands were visualized using enhanced chemiluminescence (ECL Prime Western Blotting Detection Reagent, GE Healthcare) on an ImageQuant LAS 500 (GE Healthcare).

SCAP [3] = assay: as above
Experimental: as §1, §2, §3, §4

SREBP-2 = assay: Western-blot analysis of SREBP-2 in CHO-K1 cells; details: 5 μM, 18 h, CHO-K1 cells (FIG. 3)
Experimental: CHO-K1 cells were treated with DMSO alone or each molecule (5 μM) for 18 h. The levels of precursor and mature forms of SREBP-2 were analyzed by Western-blot. Western-blots of actin are shown in lower panel as a loading control.
CHO-K1 cells were treated with DMSO alone or each molecule (5 μM) for 16 h. The levels of precursor and mature forms of SREBP-2 were analyzed by Western-blot. Western-blots of actin are shown in lower panel as a loading control.
as §4

C=C1CC[C@H](O)C/C1=C/C=C1\CCC[C@]2(C)[C@@H]([C@H](C)CCCC(C)(C)O)CC[C@@H]12 [25(OH)D, 25-hydroxyvitamin D3]
IC50 (SREBP): 1 µM and 1.09 µM | secretion of PLAP [1]: inhibited the secretion of PLAP to a greater extent than sterol; also recorded: caused a greater decrease in PLAP secretion than did cholesterol | levels of SCAP (SCAP [2]): reduced | ubiquitination of SCAP (SCAP [3]; 5 μM, 2 h then MG-132 10 μM for 2 h, immunoprecipitation (FIG. 6)): accelerated | decrease in the levels of SCAP (Myc-SCAP) on addition of MG-132 (SCAP [3]; 25(OH)D 5 μM with MG-132 10 μM, 5 h (FIG. 5)): cancelled | level of mature form of SREBP (SREBP-2): decreased | level of precursor form of SREBP (SREBP-2): decreased
